# Test results taken from US20060223888A1, “Valproic acid analogues and pharmaceutical composition thereof” (priority 2002, published 2006).
# Legend:
# rat liver = conditions: cited from earlier work
# PTZ-induced seizures = test: ED50 against PTZ-induced seizures, i.p.; type: in vivo; conditions: Rattus norvegicus, ip, male Sprague-Dawley rats (n = 8)
# Text: These compounds were investigated for anticonvulsant activity in mice^13 and rats (see results in Table 4) and found to be equivalent in potency to VPA.
# [1] = system: Maximal Electroshock (MES) seizures; test: Maximal electroshock (MES) test, rats, oral, time to peak effect; type: in vivo; conditions: 50 mg/kg
# Protocol: Anticonvulsant testing was conducted at the antiepileptic screening facility of the National Institute for Neurological Disorders and Stroke in Rockville, Md. Initial tests were done in mice (i.p.) followed by oral and i.p. administration to rats. Neurotoxicity was evaluated with the rotarod test. Maximal electroshock (MES) and subcutaneous methylene tetrazole (SCMET) or pentylene tetrazole (PTZ) were the most common tests performed. Typical procedures are described below. MES Assay. Male CD1/CR mice weighing from 25-35 g are administrated test compounds 15 minutes prior to MES. Mice are challenged by pulsed electrical stimulation (50 mA, 0.4 s duration, pulse width 0.5 ms, 60 pulses/sec) via corneal electrodes to induce seizure. Mice are observed post-stimulation for the onset of tonic seizures, and considered to have a tonic seizure only if there is a prolonged extension (>90° from plane of body) of the hind legs. […] Ten mice are used in each group. A number of VPA analogues and their sodium salts were tested for their efficacy as anticonvulsants and for their toxicity using the MES Assay and rotarod test.
# [2] = Pharmacokinetics and tissue distribution (plasma, liver, brain) after i.p. administration; type: in vivo, male Sprague-Dawley rats; conditions: rat; for Affinity for / accumulation in the liver (in words): FIG. 1, Table 5
# [3] = system: Subcutaneous Methylene Tetrazole (SCMET) seizures; test: Subcutaneous methylene tetrazole (SCMET) test, rats, oral, time to peak effect; type: in vivo; conditions: 75 mg/kg
# [4] = children born to mothers treated with VPA; cited from earlier work
# [5] = system: rotarod test (neurotoxicity); test: Rotarod neurotoxicity test (TOX), rats, oral; type: in vivo
# Protocol: Anticonvulsant testing was conducted at the antiepileptic screening facility of the National Institute for Neurological Disorders and Stroke in Rockville, Md. Initial tests were done in mice (i.p.) followed by oral and i.p. administration to rats. Neurotoxicity was evaluated with the rotarod test. Maximal electroshock (MES) and subcutaneous methylene tetrazole (SCMET) or pentylene tetrazole (PTZ) were the most common tests performed. Typical procedures are described below.
# Rotorod Test. Acute drug induced neurotoxicity is detected in mice using the standard rotorod test. An untreated mouse, when placed on a 6 rpm rotation rod, can maintain its equilibrium for a prolonged period of time.
# A number of VPA analogues and their sodium salts were tested for their efficacy as anticonvulsants and for their toxicity using the MES Assay and rotarod test. In particular, the following compounds (as shown in the structures below) were tested: 332059U (sodium salt of VPA), 325071 (known compound, tested for comparison), 325073A (metabolite of VPA), 332060U (4,4-difluoro-2-propylpentanoate, fluorinated analogue of VPA), 341031, and 341032U (conjugated (E,Z)-2,3′-diene VPA analogues).
compound,measurement,setting,value
"C=CCC(CCC)C(=O)O (stereo not drawn) [4-ene VPA, 2-propylpent-4-enoic acid]",Lipid accumulation in rat liver,rat liver,induce massive lipid accumulation in rat liver
"C/C=C\C(=C/CC)C(=O)[O-].[Na+] [325073A, Sodium (2E)-2-[(1Z)-prop-1-en-1-yl]pent-2-enoate]",ED50,PTZ-induced seizures,168 mg/kg
same,MES N/F = number of animals protected relative to number tested,[1]; 0.25 h,2/4
same,MES N/F = number of animals protected relative to number tested,[1]; 0.5 h,0/4
same,MES N/F = number of animals protected relative to number tested,[1]; 1.0 h,0/4
same,MES N/F = number of animals protected relative to number tested,[1]; 2.0 h,0/4
same,Distribution to the brain (in words),[2]; FIG. 1,rapid distribution to the brain
same,Affinity for / accumulation in the liver (in words),"[2]; listed as (E,Z)-2,3′-diene VPA",significantly reduced affinity for the liver
same,Affinity for / accumulation in the liver (in words),"[2]; listed as (E,Z)-2,3′-diene-VPA",markedly reduced affinities for liver
same,SCMET N/F = number of animals protected relative to number tested,[3]; 0.25 h,1/4
same,SCMET N/F = number of animals protected relative to number tested,[3]; 0.5 h,0/4
same,SCMET N/F = number of animals protected relative to number tested,[3]; 1.0 h,0/4
same,SCMET N/F = number of animals protected relative to number tested,[3]; 2.0 h,0/4
same,SCMET N/F = number of animals protected relative to number tested,[3]; 4.0 h,0/4
"CCCC(CCC)C(=O)[O-].[Na+] [332059A, Sodium 2-propylpentanoate, reference compound]","Neural tube defects leading to spina bifida, share of children born to treated mothers",[4],1-2%
same,ED50,PTZ-induced seizures,158 mg/kg
same,TOX: N/F = number of animals that failed the rotarod test to numbers tested,"[5]; 300 mg/kg, 0.25 h",0/4
same,TOX: N/F = number of animals that failed the rotarod test to numbers tested,"[5]; 300 mg/kg, 0.5 h",0/4
same,TOX: N/F = number of animals that failed the rotarod test to numbers tested,"[5]; 300 mg/kg, 1.0 h",0/4
same,TOX: N/F = number of animals that failed the rotarod test to numbers tested,"[5]; 300 mg/kg, 2.0 h",0/4
same,TOX: N/F = number of animals that failed the rotarod test to numbers tested,"[5]; 300 mg/kg, 4.0 h",0/4
same,TOX: N/F = number of animals that failed the rotarod test to numbers tested,"[5]; 400 mg/kg, 0.5 h",0/4
same,TOX: N/F = number of animals that failed the rotarod test to numbers tested,"[5]; 400 mg/kg, 1.0 h",0/4
same,TOX: N/F = number of animals that failed the rotarod test to numbers tested,"[5]; 400 mg/kg, 2.0 h",0/4
"C=C/C=C(\CCC)C(=O)O [(E)-2,4-diene-VPA, 2-propylpent-(E)-2,4-dienoic acid]",Lipid accumulation in rat liver,rat liver,induce massive lipid accumulation in rat liver
"CCC=C(CCC)C(=O)O [(E)-2-ene VPA, 2-propylpent-2-enoic acid]",ED50,PTZ-induced seizures,185 mg/kg
same,Affinity for / accumulation in the liver (in words),[2],markedly reduced affinities for liver
